{"source": "PubChem BioAssay AID2060620", "about": "(Molecular Pharmacology Branch, DTP, NCI, 2025);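 note: spheroids exposed to the agents for 7 days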", "tested_on": "328373-195-R-J1-PDC complex spheroids, viability % test/control", "assay": "Anticancer human tumor 328373-195-R-J1-PDC patient-derived head and neck squamous carcinoma cell line growth inhibition [CLK]", "conditions": "for IC50: curve of first compound; for viability, T/C: stronger effect = lower value", "method_in_brief": "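Patient-derived tumor cells grown as complex spheroids with HUVEC endothelial cells and mesenchymal stem cells, treated with drug combinations. Concentrations descend in half-log steps from near clinical Cmax, or from 10 microM if Cmax unknown.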"}
{"smiles": "CC(C)CC(NC(=O)C(Cc1ccccc1)NC(=O)c1cnccn1)B(O)O", "note": "(centres undefined) + CN1CCN(c2cc(C(=O)Nc3cc4cc(-c5cnn(C)c5)ccc4cn3)ccn2)CC1", "values": [{"measurement": "IC50", "setting": "second compound 0.0316 µM", "value": 1.76, "unit": "nM"}, {"measurement": "IC50", "setting": "second compound 0.1 µM", "value": 1.5, "unit": "nM"}, {"measurement": "IC50", "setting": "second compound 0.316 µM", "value": "< 0.949", "unit": "nM"}, {"measurement": "IC50", "setting": "second compound 1 µM", "value": "< 0.949", "unit": "nM"}, {"measurement": "IC50", "setting": "second compound 3.16 µM", "value": "< 0.949", "unit": "nM"}, {"measurement": "IC50", "setting": "second compound 10 µM", "value": "< 0.949", "unit": "nM"}, {"measurement": "viability, T/C", "setting": "second compound 0.0316 µM, first compound 0.000949 µM", "value": 98.5, "unit": "%"}, {"measurement": "viability, T/C", "setting": "second compound 0.0316 µM, first compound 0.003 µM", "value": 8.37, "unit": "%"}, {"measurement": "viability, T/C", "setting": "second compound 0.0316 µM, first compound 0.00949 µM", "value": 1.89, "unit": "%"}, {"measurement": "viability, T/C", "setting": "second compound 0.0316 µM, first compound 0.03 µM", "value": 0.2, "unit": "%"}, {"measurement": "viability, T/C", "setting": "second compound 0.0316 µM, first compound 0.0949 µM", "value": 0.17, "unit": "%"}, {"measurement": "viability, T/C", "setting": "second compound 0.0316 µM, first compound 0.3 µM", "value": 2.7, "unit": "%"}, {"measurement": "viability, T/C", "setting": "second compound 0.1 µM, first compound 0.000949 µM", "value": 78.4, "unit": "%"}, {"measurement": "viability, T/C", "setting": "second compound 0.1 µM, first compound 0.003 µM", "value": 6.61, "unit": "%"}, {"measurement": "viability, T/C", "setting": "second compound 0.1 µM, first compound 0.00949 µM", "value": 2.17, "unit": "%"}, {"measurement": "viability, T/C", "setting": "second compound 0.1 µM, first compound 0.03 µM", "value": 0.2, "unit": "%"}, {"measurement": "viability, T/C", "setting": "second compound 0.1 µM, first compound 0.0949 µM", "value": 1.87, "unit": "%"}, {"measurement": "viability, T/C", "setting": "second compound 0.1 µM, first compound 0.3 µM", "value": 2.34, "unit": "%"}, {"measurement": "viability, T/C", "setting": "second compound 0.316 µM, first compound 0.000949 µM", "value": 26.6, "unit": "%"}, {"measurement": "viability, T/C", "setting": "second compound 0.316 µM, first compound 0.003 µM", "value": 1.25, "unit": "%"}, {"measurement": "viability, T/C", "setting": "second compound 0.316 µM, first compound 0.00949 µM", "value": 0.78, "unit": "%"}, {"measurement": "viability, T/C", "setting": "second compound 0.316 µM, first compound 0.03 µM", "value": 0.49, "unit": "%"}, {"measurement": "viability, T/C", "setting": "second compound 0.316 µM, first compound 0.0949 µM", "value": 1.14, "unit": "%"}, {"measurement": "viability, T/C", "setting": "second compound 0.316 µM, first compound 0.3 µM", "value": 4.1, "unit": "%"}, {"measurement": "viability, T/C", "setting": "second compound 1 µM, first compound 0.000949 µM", "value": 0.13, "unit": "%"}, {"measurement": "viability, T/C", "setting": "second compound 1 µM, first compound 0.003 µM", "value": 3.65, "unit": "%"}, {"measurement": "viability, T/C", "setting": "second compound 1 µM, first compound 0.00949 µM", "value": 0.97, "unit": "%"}, {"measurement": "viability, T/C", "setting": "second compound 1 µM, first compound 0.03 µM", "value": 0.1, "unit": "%"}, {"measurement": "viability, T/C", "setting": "second compound 1 µM, first compound 0.0949 µM", "value": 0.09, "unit": "%"}, {"measurement": "viability, T/C", "setting": "second compound 1 µM, first compound 0.3 µM", "value": 2.54, "unit": "%"}, {"measurement": "viability, T/C", "setting": "second compound 3.16 µM, first compound 0.000949 µM", "value": 0.08, "unit": "%"}, {"measurement": "viability, T/C", "setting": "second compound 3.16 µM, first compound 0.003 µM", "value": 4.42, "unit": "%"}, {"measurement": "viability, T/C", "setting": "second compound 3.16 µM, first compound 0.00949 µM", "value": 1.48, "unit": "%"}, {"measurement": "viability, T/C", "setting": "second compound 3.16 µM, first compound 0.03 µM", "value": 0.07, "unit": "%"}, {"measurement": "viability, T/C", "setting": "second compound 3.16 µM, first compound 0.0949 µM", "value": 1.48, "unit": "%"}, {"measurement": "viability, T/C", "setting": "second compound 3.16 µM, first compound 0.3 µM", "value": 1.92, "unit": "%"}, {"measurement": "viability, T/C", "setting": "second compound 10 µM, first compound 0.000949 µM", "value": 2.18, "unit": "%"}, {"measurement": "viability, T/C", "setting": "second compound 10 µM, first compound 0.003 µM", "value": 1.53, "unit": "%"}, {"measurement": "viability, T/C", "setting": "second compound 10 µM, first compound 0.00949 µM", "value": 3.09, "unit": "%"}, {"measurement": "viability, T/C", "setting": "second compound 10 µM, first compound 0.03 µM", "value": 0.11, "unit": "%"}, {"measurement": "viability, T/C", "setting": "second compound 10 µM, first compound 0.0949 µM", "value": 1.22, "unit": "%"}, {"measurement": "viability, T/C", "setting": "second compound 10 µM, first compound 0.3 µM", "value": 2.07, "unit": "%"}]}
{"smiles": "O=C(c1cc(Cc2n[nH]c(=O)c3ccccc23)ccc1F)N1CCN(C(=O)C2CC2)CC1", "note": "+ CN1CCN(c2cc(C(=O)Nc3cc4cc(-c5cnn(C)c5)ccc4cn3)ccn2)CC1", "values": [{"measurement": "IC50", "setting": "second compound 0.0316 µM", "value": "> 10000", "unit": "nM"}, {"measurement": "IC50", "setting": "second compound 0.1 µM", "value": "> 10000", "unit": "nM"}, {"measurement": "IC50", "setting": "second compound 0.316 µM", "value": "< 31.6", "unit": "nM"}, {"measurement": "IC50", "setting": "second compound 1 µM", "value": "< 31.6", "unit": "nM"}, {"measurement": "IC50", "setting": "second compound 3.16 µM", "value": "< 31.6", "unit": "nM"}, {"measurement": "IC50", "setting": "second compound 10 µM", "value": "< 31.6", "unit": "nM"}, {"measurement": "viability, T/C", "setting": "second compound 0.0316 µM, first compound 0.0316 µM", "value": 92.9, "unit": "%"}, {"measurement": "viability, T/C", "setting": "second compound 0.0316 µM, first compound 0.1 µM", "value": 91, "unit": "%"}, {"measurement": "viability, T/C", "setting": "second compound 0.0316 µM, first compound 0.316 µM", "value": 98.9, "unit": "%"}, {"measurement": "viability, T/C", "setting": "second compound 0.0316 µM, first compound 1 µM", "value": 92.7, "unit": "%"}, {"measurement": "viability, T/C", "setting": "second compound 0.0316 µM, first compound 3.16 µM", "value": 90.4, "unit": "%"}, {"measurement": "viability, T/C", "setting": "second compound 0.0316 µM, first compound 10 µM", "value": 78.5, "unit": "%"}, {"measurement": "viability, T/C", "setting": "second compound 0.1 µM, first compound 0.0316 µM", "value": 76.8, "unit": "%"}, {"measurement": "viability, T/C", "setting": "second compound 0.1 µM, first compound 0.1 µM", "value": 81.4, "unit": "%"}, {"measurement": "viability, T/C", "setting": "second compound 0.1 µM, first compound 0.316 µM", "value": 86.4, "unit": "%"}, {"measurement": "viability, T/C", "setting": "second compound 0.1 µM, first compound 1 µM", "value": 83.9, "unit": "%"}, {"measurement": "viability, T/C", "setting": "second compound 0.1 µM, first compound 3.16 µM", "value": 79, "unit": "%"}, {"measurement": "viability, T/C", "setting": "second compound 0.1 µM, first compound 10 µM", "value": 57.1, "unit": "%"}, {"measurement": "viability, T/C", "setting": "second compound 0.316 µM, first compound 0.0316 µM", "value": 23.5, "unit": "%"}, {"measurement": "viability, T/C", "setting": "second compound 0.316 µM, first compound 0.1 µM", "value": 29.2, "unit": "%"}, {"measurement": "viability, T/C", "setting": "second compound 0.316 µM, first compound 0.316 µM", "value": 23.1, "unit": "%"}, {"measurement": "viability, T/C", "setting": "second compound 0.316 µM, first compound 1 µM", "value": 27.4, "unit": "%"}, {"measurement": "viability, T/C", "setting": "second compound 0.316 µM, first compound 3.16 µM", "value": 24.4, "unit": "%"}, {"measurement": "viability, T/C", "setting": "second compound 0.316 µM, first compound 10 µM", "value": 17.1, "unit": "%"}, {"measurement": "viability, T/C", "setting": "second compound 1 µM, first compound 0.0316 µM", "value": 0.23, "unit": "%"}, {"measurement": "viability, T/C", "setting": "second compound 1 µM, first compound 0.1 µM", "value": 0.16, "unit": "%"}, {"measurement": "viability, T/C", "setting": "second compound 1 µM, first compound 0.316 µM", "value": 1.14, "unit": "%"}, {"measurement": "viability, T/C", "setting": "second compound 1 µM, first compound 1 µM", "value": 0.33, "unit": "%"}, {"measurement": "viability, T/C", "setting": "second compound 1 µM, first compound 3.16 µM", "value": 2.95, "unit": "%"}, {"measurement": "viability, T/C", "setting": "second compound 1 µM, first compound 10 µM", "value": 2.82, "unit": "%"}, {"measurement": "viability, T/C", "setting": "second compound 3.16 µM, first compound 0.0316 µM", "value": 2.14, "unit": "%"}, {"measurement": "viability, T/C", "setting": "second compound 3.16 µM, first compound 0.1 µM", "value": 2.06, "unit": "%"}, {"measurement": "viability, T/C", "setting": "second compound 3.16 µM, first compound 0.316 µM", "value": 2.2, "unit": "%"}, {"measurement": "viability, T/C", "setting": "second compound 3.16 µM, first compound 1 µM", "value": 1.77, "unit": "%"}, {"measurement": "viability, T/C", "setting": "second compound 3.16 µM, first compound 3.16 µM", "value": 3.1, "unit": "%"}, {"measurement": "viability, T/C", "setting": "second compound 3.16 µM, first compound 10 µM", "value": 1.47, "unit": "%"}, {"measurement": "viability, T/C", "setting": "second compound 10 µM, first compound 0.0316 µM", "value": 0.09, "unit": "%"}, {"measurement": "viability, T/C", "setting": "second compound 10 µM, first compound 0.1 µM", "value": 3.55, "unit": "%"}, {"measurement": "viability, T/C", "setting": "second compound 10 µM, first compound 0.316 µM", "value": 1.83, "unit": "%"}, {"measurement": "viability, T/C", "setting": "second compound 10 µM, first compound 1 µM", "value": 0.13, "unit": "%"}, {"measurement": "viability, T/C", "setting": "second compound 10 µM, first compound 3.16 µM", "value": 3.63, "unit": "%"}, {"measurement": "viability, T/C", "setting": "second compound 10 µM, first compound 10 µM", "value": 0.27, "unit": "%"}]}
